From PubChem BioAssay AID248 (DTP/NCI, 2004)
Several values for one entry are separate records, joined by “and”; a condition that tells them apart may be missing. Equal entries are not always repeated. Toxic doses and inconclusive results are not listed. Cut-off read from the data, not from the text of the source: active = T/C of 150% or more; inactive = T/C below 125%.

Test system: L1210 leukemia ip in BDF1 mice, survival T/C
Assay: NCI In Vivo Anticancer Drug Screen. Data for tumor model L1210 Leukemia (intraperitoneal) in B6D2F1 (BDF1) mice
Details: endpoint: mean survival time, higher = longer survival
Outline: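 Transplantable tumor model; survival measured in treated vs vehicle control mice. Value = treated/control.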

[1] = dose: 100.0 mg/kg/injection, schedule: Q01DX009 (ip), vehicle: saline with Tween-80
[2] = dose: 200.0 mg/kg/injection, schedule: Q01DX009 (ip), vehicle: saline with Tween-80
[3] = dose: 100.0 mg/kg/injection, schedule: Q01DX001 (ip), vehicle: saline
[4] = dose: 200.0 mg/kg/injection, schedule: Q01DX001 (ip), vehicle: saline
[5] = dose: 100.0 mg/kg/injection, schedule: Q04DX003 (ip), vehicle: saline
[6] = dose: 200.0 mg/kg/injection, schedule: Q04DX003 (ip), vehicle: saline
[7] = dose: 400.0 mg/kg/injection, schedule: Q01DX001 (ip), vehicle: saline
[8] = dose: 100.0 mg/kg/injection, schedule: Q04DX002 (ip), vehicle: Klucel (hydroxypropylcellulose) (HPC)
[9] = dose: 200.0 mg/kg/injection, schedule: Q04DX002 (ip), vehicle: Klucel (hydroxypropylcellulose) (HPC)
[10] = dose: 400.0 mg/kg/injection, schedule: Q04DX002 (ip), vehicle: Klucel (hydroxypropylcellulose) (HPC)
[11] = dose: 100.0 mg/kg/injection, schedule: Q01DX001 (ip), vehicle: saline with Tween-80
[12] = dose: 200.0 mg/kg/injection, schedule: Q01DX001 (ip), vehicle: saline with Tween-80
[13] = dose: 400.0 mg/kg/injection, schedule: Q01DX001 (ip), vehicle: saline with Tween-80
[14] = dose: 100.0 mg/kg/injection, schedule: Q01DX009 (ip), vehicle: Klucel (hydroxypropylcellulose) (HPC)
[15] = dose: 200.0 mg/kg/injection, schedule: Q01DX009 (ip), vehicle: Klucel (hydroxypropylcellulose) (HPC)
[16] = dose: 25.0 mg/kg/injection, schedule: Q01DX009 (ip), vehicle: saline
[17] = dose: 50.0 mg/kg/injection, schedule: Q01DX009 (ip), vehicle: saline
[18] = dose: 100.0 mg/kg/injection, schedule: Q01DX009 (ip), vehicle: saline
[19] = dose: 100.0 mg/kg/injection, schedule: Q04DX003 (ip), vehicle: Klucel (hydroxypropylcellulose) (HPC)
[20] = dose: 200.0 mg/kg/injection, schedule: Q04DX003 (ip), vehicle: Klucel (hydroxypropylcellulose) (HPC)

Measured: T/C

CC(=O)N1c2cc3ccccc3cc2N(C(C)=O)c2cc3ccccc3cc21
inactive: dose: 100.0 mg/kg/injection, schedule: Q01DX001 (ip), vehicle: acetone 92 % of control | [1] 103 % of control | dose: 200.0 mg/kg/injection, schedule: Q01DX001 (ip), vehicle: acetone 90 % of control | [2] 106 % of control | dose: 400.0 mg/kg/injection, schedule: Q01DX001 (ip), vehicle: acetone 88 % of control | dose: 400.0 mg/kg/injection, schedule: Q01DX009 (ip), vehicle: saline with Tween-80 95 % of control

CC(C)(C)N(CSc1ccc(Cl)cc1)CSc1ccc(Cl)cc1
inactive: [3] 104 % of control | [4] 104 % of control

Cc1ccc(S(=O)(=O)NCCN)cc1
inactive: [5] 97 % of control | [6] 97 % of control

COC(CNCCO)c1ccccc1 (centres undefined)
inactive: dose: 25.0 mg/kg/injection, schedule: Q01DX009 (ip), vehicle: saline with Tween-80 104 % of control | dose: 50.0 mg/kg/injection, schedule: Q01DX009 (ip), vehicle: saline with Tween-80 98 % of control | [1] 106 % of control

Cc1csc(C)[n+]1[O-]
inactive: [5] 102 % of control | [6] 101 % of control | dose: 400.0 mg/kg/injection, schedule: Q04DX003 (ip), vehicle: saline 98 % of control

Cc1ccc2c(C)c3ccc4ccccc4c3c[n+]2c1
inactive: dose: 3.13 mg/kg/injection, schedule: Q01DX009 (ip), vehicle: saline with Tween-80 98 % of control | dose: 6.2 mg/kg/injection, schedule: Q04DX003 (ip), vehicle: Klucel (hydroxypropylcellulose) (HPC) 111 % of control | dose: 6.25 mg/kg/injection, schedule: Q01DX009 (ip), vehicle: saline with Tween-80 107 % of control | dose: 12.5 mg/kg/injection, schedule: Q01DX009 (ip), vehicle: saline with Tween-80 107 % of control and 113 % of control | dose: 12.5 mg/kg/injection, schedule: Q04DX003 (ip), vehicle: Klucel (hydroxypropylcellulose) (HPC) 104 % of control | dose: 25.0 mg/kg/injection, schedule: Q04DX003 (ip), vehicle: Klucel (hydroxypropylcellulose) (HPC) 111 % of control | dose: 50.0 mg/kg/injection, schedule: Q04DX003 (ip), vehicle: Klucel (hydroxypropylcellulose) (HPC) 117 % of control | [3] 123 % of control | [4] 104 % of control | [7] 104 % of control

CCCCS(=O)(=O)N1CC(C)OC(C)C1 (centres undefined)
inactive: [8] 97 % of control | [9] 108 % of control | [10] 97 % of control

CC(C)(C)NCCC(=O)c1ccccc1
inactive: dose: 12.5 mg/kg/injection, schedule: Q04DX003 (ip), vehicle: saline 98 % of control | dose: 25.0 mg/kg/injection, schedule: Q04DX003 (ip), vehicle: saline 102 % of control | dose: 50.0 mg/kg/injection, schedule: Q04DX003 (ip), vehicle: saline 101 % of control

Nc1nc2c(ncn2-c2ccccc2Cl)c(=O)[nH]1
inactive: [11] 95 % of control | [12] 92 % of control | [13] 100 % of control

COc1ccc(OC)c(NC(=S)NC(=O)c2ccccc2F)c1
inactive: [1] 94 % of control | [2] 86 % of control

O=C(COc1cc(Cl)c(Cl)cc1Cl)NCCO
inactive: [8] 92 % of control | [9] 110 % of control | [10] 108 % of control

O=C(O)C1CC2(CCC1c1ccccc1)SCCS2 (centres undefined)
inactive: dose: 50.0 mg/kg/injection, schedule: Q01DX009 (ip), vehicle: Klucel (hydroxypropylcellulose) (HPC) 95 % of control | dose: 100.0 mg/kg/injection, schedule: Q01DX001 (ip), vehicle: Klucel (hydroxypropylcellulose) (HPC) 97 % of control | [14] 93 % of control | dose: 200.0 mg/kg/injection, schedule: Q01DX001 (ip), vehicle: Klucel (hydroxypropylcellulose) (HPC) 100 % of control | [15] 96 % of control | dose: 400.0 mg/kg/injection, schedule: Q01DX001 (ip), vehicle: Klucel (hydroxypropylcellulose) (HPC) 96 % of control

O=[As]O
inactive: dose: 0.5 mg/kg/injection, schedule: Q01DX015 (ip), vehicle: carboxymethylcellulose (CMC) 97 % of control | dose: 1.0 mg/kg/injection, schedule: Q01DX015 (ip), vehicle: carboxymethylcellulose (CMC) 93 % of control | dose: 1.53 mg/kg/injection, schedule: Q01DX Z (ip), vehicle: carboxymethylcellulose (CMC) 110 % of control | dose: 2.0 mg/kg/injection, schedule: Q01DX015 (ip), vehicle: carboxymethylcellulose (CMC) 97 % of control | dose: 3.15 mg/kg/injection, schedule: Q01DX Z (ip), vehicle: carboxymethylcellulose (CMC) 98 % of control | dose: 4.0 mg/kg/injection, schedule: Q01DX015 (ip), vehicle: carboxymethylcellulose (CMC) 97 % of control | dose: 5.0 mg/kg/injection, schedule: Q01DX015 (ip), vehicle: carboxymethylcellulose (CMC) 88 % of control | dose: 6.3 mg/kg/injection, schedule: Q01DX Z (ip), vehicle: carboxymethylcellulose (CMC) 104 % of control | dose: 10.0 mg/kg/injection, schedule: Q01DX015 (ip), vehicle: carboxymethylcellulose (CMC) 87 % of control | dose: 12.6 mg/kg/injection, schedule: Q01DX Z (ip), vehicle: carboxymethylcellulose (CMC) 104 % of control

COC(c1ccccc1)[CH]([Hg][Br])C(=O)OC1CC2CCC1(C)C2(C)C (centres undefined)
inactive: dose: 50.0 mg/kg/injection, schedule: Q01DX001 (ip), vehicle: carboxymethylcellulose (CMC) 93 % of control

CC(=NCC(=O)O)c1ccccc1
inactive: [16] 104 % of control | [17] 94 % of control | [18] 90 % of control | [5] 100 % of control

CCCCCCCCN(C)Cc1cc(C(C)(C)C)cc(-c2ccccc2)c1O
inactive: [11] 94 % of control | [12] 90 % of control | [13] 92 % of control

C/C(=C\CN1C(=O)CN(C)C1=O)CCC1OC1(C)C (centres undefined)
inactive: [3] 115 % of control | dose: 100.0 mg/kg/injection, schedule: Q04DX003 (ip), vehicle: water 100 % of control | [4] 111 % of control | dose: 200.0 mg/kg/injection, schedule: Q04DX003 (ip), vehicle: water 98 % of control | [7] 114 % of control | dose: 400.0 mg/kg/injection, schedule: Q04DX003 (ip), vehicle: water 104 % of control

CC(C)[CH2][Sn]([CH2]C(C)C)([CH2]C(C)C)[C](C)(C)C
inactive: dose: 100.0 mg/kg/injection, schedule: Q04DX002 (ip), vehicle: saline 94 % of control | dose: 200.0 mg/kg/injection, schedule: Q04DX002 (ip), vehicle: saline 90 % of control | dose: 400.0 mg/kg/injection, schedule: Q04DX002 (ip), vehicle: saline 100 % of control

CCOC(=O)NCC(CCN1CCCCC1)(c1cccc2ccccc12)C(C)C (centres undefined)
inactive: [19] 100 % of control | [20] 88 % of control

O=C(O)CCc1ccc(-c2cccc([N+](=O)[O-])c2)o1
inactive: dose: 100.0 mg/kg/injection, schedule: Q04DX002 (ip), vehicle: saline with Tween-80 102 % of control | dose: 200.0 mg/kg/injection, schedule: Q04DX002 (ip), vehicle: saline with Tween-80 105 % of control | dose: 400.0 mg/kg/injection, schedule: Q04DX002 (ip), vehicle: saline with Tween-80 98 % of control

C=C1C(=O)OC2CCCCCCC12 (centres undefined)
inactive: [17] 95 % of control | [18] 95 % of control

CCN(CC)N=Nc1ccccc1-c1nc(N)nc(N)n1
inactive: [19] 95 % of control | [20] 108 % of control

O=c1c(O)c(-c2ccc(O)c(O)c2)oc2cc(O)cc(O)c12
inactive: [16] 115 % of control | [17] 105 % of control | [18] 103 % of control | dose: 200.0 mg/kg/injection, schedule: Q01DX009 (ip), vehicle: saline 104 % of control and 120 % of control

Cc1ccccc1SC(=O)Nc1cc(C(F)(F)F)ccc1Cl
inactive: [14] 100 % of control | [15] 98 % of control | dose: 400.0 mg/kg/injection, schedule: Q01DX009 (ip), vehicle: Klucel (hydroxypropylcellulose) (HPC) 100 % of control
